Legend:
APP/PS1 mice = assay: 2-day radial arm water maze (reference memory); type: in vivo; settings: 3 mg/kg i.p. for 3 weeks
Method: The radial arm water maze task, a hybrid of the classic Morris Water Maze and the radial arm land maze, was performed as described in J. Alamed, D. M. Wilcock, D. M. Diamond, M. N. Gordon, D. Morgan, Two-day radial-arm water maze learning and memory task; robust resolution of amyloid-related memory deficits in transgenic mice, Nat. Prot. 1 (2006) 1671-1679, herein incorporated by reference in its entirety. The mouse had to swim in 6 alleys (arms) radiating from a central area until it found a hidden (submerged) platform at the end of one of the arms, based on visual cues placed in the room. The first day of the protocol was a training day on which mice were trained to identify the platform location by alternating between a visible and a hidden platform in a goal arm. The final 3 trials on that day and all 15 trials on day 2 used a hidden escape platform to force mice to use spatial cues to identify the location of the goal arm. […] The number of incorrect arm entries (entries to arms with no platform) was counted. […] Failure to select an arm after 15 sec was counted as an error and the mouse was returned to the start arm. […] For data analysis, averages for each mouse were calculated using blocks of 3 trials. […]

[1] = test system: LTP at the CA3-CA1 connection of hippocampal slices; assay: Long-term potentiation in hippocampal slices, compound in bath perfusion; design: species or system mice; settings: 50 nM bath perfusion
hippocampal cGMP levels = assay: Hippocampal cGMP assay after foot shock; type: in vivo, mice
Method: The hippocampal samples were extracted and snap frozen in liquid nitrogen. Levels of cGMP were quantitated by Enzyme Immunoassay procedure (Cayman Chemical Company, Item no. 581021) following the manufacturer's guidelines in duplicate. cGMP levels were normalized with the protein concentration calculated using BCA Protein Assay Reagent (Thermo Scientific).
cGMP levels in adult mice after treatment with compound H were measured. In a series of preliminary experiments, foot shock induces an immediate increase in cGMP levels in the hippocampus (FIG. 1). Concentration of cGMP was measured by enzyme immunoassay. Basal represents cGMP levels without foot shock. Values are the mean of duplicate determinations. Error bars show S.E.M. (n=3 per group); *p<0.01; ^‡p=0.033.

[2] = Acute toxicity study with histology; type: in vivo; settings: 120 or 240 mg/kg, i.p.
Excerpt: Brain, muscle, kidney, and liver were harvested from each mouse, and tissue from each organ was examined histologically by a board-certified pathologist for signs of toxicity.

PDE5 = PDE5 (Homo sapiens (Human), UniProt O76074); assay: PDE5 inhibition assay (BPS PDE assay kit, fluorescence polarization); type: biochemical; settings: Table 1; 100 nM FAM-cGMP
Method: Materials and Methods: PDE5 inhibition was assayed at BPS Bioscience (San Diego, Calif.) using BPS PDE assay kits (BPS Catalog number 60300, enzyme lot 090810). Test compounds were supplied as liquid solutions of 10 mM concentration in DMSO. Sildenafil, used as a standard was dissolved in DMSO. Intermediate dilutions were 10% DMSO in PDE assay buffer and tests at ranges from 0.1 to 100 nM. 0.1 ng of enzyme was used per reaction, and the substrate was 100 nM FAM-cGMP.
Assay conditions: A series of dilutions of the test compounds were prepared with 10% DMSO in assay buffer and 5 μl of the dilution was added to a 50 μl reaction so that the final concentration of DMSO is 1% in all of reactions. The enzymatic reactions were conducted at room temperature for 60 minutes in a 50 μl mixture containing PDE assay buffer, 100 nM FAM-cAMP or 100 nM FAM-cGMP, a PDE enzyme, and the test compound. After the enzymatic reaction, 100 μl of a binding solution (1:100 dilution of the binding agent with the binding agent diluent) was added to each reaction and the reaction was performed at room temperature for 60 minutes. Fluorescence intensity was measured at an excitation of 485 nm and an emission of 528 nm using a Tecan Infinite M1000 microplate reader.
Data analysis: PDE activity assays were performed in duplicate at each concentration. Fluorescence intensity is converted to fluorescence polarization using the Tecan Magellan6 software. The fluorescence polarization data were analyzed using the computer software, Graphpad Prism. The fluorescence polarization (FPt) in absence of the compound in each data set was defined as 100% activity. In the absence of PDE and the compound, the value of fluorescent polarization (FPb) in each data set was defined as 0% activity. The percent activity in the presence of the compound was calculated according to the following equation: % activity=(FP−FPb)/(FPt−FPb)×100%, where FP=the fluorescence polarization in the presence of the compound.
The values of % activity versus a series of compound concentrations were then plotted using non-linear regression analysis of Sigmoidal dose-response curve generated with the equation Y=B+(T−B)/1+10^((LogEC50-X)×Hill Slope), where Y=percent activity, B=minimum percent activity, T=maximum percent activity, X=logarithm of compound and Hill Slope=slope factor or Hill coefficient. The IC50 value was determined by the concentration causing a half-maximal percent activity.

COc1ccc(CNc2c3c(nc4ccc(C#N)cc24)CCN(C(C)=O)C3)cc1Cl [Compound H, 2-acetyl-10-[(3-chloro-4-methoxybenzyl)amino]-1,2,3,4-tetrahydrobenzo[b][1,6]naphthyridine-8-carbonitrile]
effect on reference memory of WT mice (2-day RAWM) (APP/PS1 mice): no effect
effect on LTP of WT slices [1]: no effect
hippocampal cGMP level (hippocampal cGMP levels; 3 mg/kg i.p. 30 min before foot shock, 10 sec after shock): 0.48 ± 0.014 pmol/mg
hippocampal cGMP level (hippocampal cGMP levels; 3 mg/kg i.p. 30 min before foot shock, 60 sec after shock): 0.58 ± 0.033 pmol/mg
hippocampal cGMP level (hippocampal cGMP levels; 3 mg/kg i.p. 30 min before foot shock, 180 sec after shock): 0.58 ± 0.044 pmol/mg
hippocampal cGMP level (hippocampal cGMP levels; 10 mg/Kg i.p. 30 min before foot shock, 10 sec after shock): 0.56 ± 0.033 pmol/mg
hippocampal cGMP level (hippocampal cGMP levels; 10 mg/Kg i.p. 30 min before foot shock, 60 sec after shock): 0.70 ± 0.028 pmol/mg
hippocampal cGMP level (hippocampal cGMP levels; 10 mg/Kg i.p. 30 min before foot shock, 180 sec after shock): 0.63 ± 0.013 pmol/mg
brain sections, CD45 immunostain [2]: no signs of inflammation
brain sections, GFAP immunostain [2]: no signs of gliosis
brain sections, H&E [2]: did not show any signs of toxicity
brain sections, LFB-PAS stain [2]: no signs of demyelination
kidney sections, H&E [2]: no toxicity
kidney sections, PAS stain [2]: did not show any abnormalities in the glomerular basement membrane
kidney sections, trichrome stain [2]: no fibrosis
liver sections, H&E [2]: did not show any signs of toxicity
liver sections, trichrome stain [2]: no fibrosis or cirrhotic liver disease
muscle sections, H&E [2]: no signs of toxicity
muscle sections, trichrome stain [2]: no muscle fibrosis
IC50 (PDE5): 0.056 nM

— patent publication US10626113B2, “Phosphodiesterase inhibitors and uses thereof” (THE TRUSTEES OF COLUMBIA UNIVERSITY IN THE CITY OF NEW YORK, priority 2012, dated 2020)
